Experimental data: BigSolDB 2.1

O=C(O)c1cccc(O)c1
solubility (mole fraction)
Conditions	278.15 K	283.15 K	288.15 K	293.15 K	298.15 K	303.15 K	308.15 K	313.15 K	318.15 K	323.15 K
in acetone	0.101	0.107	0.111	0.116	0.122	0.128	0.134	0.142	0.151	0.159
in acetonitrile	0.00646	0.00759	0.0103	0.0116	0.0132	0.0155	0.017	0.0199	0.0228	0.0262
in ethanol	0.0936	0.0968	0.101	0.106	0.112	0.116	0.121	0.127	0.134	0.147
in ethyl acetate	0.0377	0.041	0.0441	0.0486	0.0534	0.0565	0.0607	0.0682	0.0742	0.0764
in ethylene glycol	0.0804	0.0829	0.0847	0.0883	0.0959	0.102	0.109	0.116	0.124	0.136
in isopropanol	0.0984	0.104	0.109	0.114	0.121	0.127	0.134	0.14	0.148	0.155
in isopropyl acetate	0.0305	0.0337	0.0365	0.0383	0.043	0.0465	0.0507	0.0552	0.059	0.0618
in methanol	0.0815	0.0856	0.0895	0.0943	0.0995	0.105	0.11	0.117	0.124	0.13
in methyl acetate	0.0388	0.0435	0.048	0.0502	0.0549	0.0577	0.0631	0.0691	0.0764	0.0808
in n-butanol	0.0772	0.0831	0.0857	0.0919	0.0957	0.102	0.109	0.115	0.12	0.125
in n-butyl acetate	0.0361	0.0397	0.043	0.0459	0.0486	0.0526	0.0564	0.0611	0.0661	0.0693
in n-pentanol	0.0774	0.0815	0.0852	0.0902	0.0951	0.101	0.106	0.113	0.118	0.125
in n-propanol	0.0827	0.0878	0.0949	0.0975	0.101	0.108	0.114	0.121	0.128	0.133
in n-propyl acetate	0.0379	0.0434	0.0449	0.047	0.0513	0.0569	0.061	0.0651	0.0711	0.0769
